These results are taken from US9937192B2, “Combination therapy to treat mycobacterium diseases” (priority 2012, dated 2018).

Test [1] deals with M. tuberculosis. Description: microbe, parasite or virus in culture. It counts as cell-based.
Test [2] deals with nonreplicating M. tuberculosis. The test is described as follows: Low-Oxygen-Recovery Assay (LORA) MIC. It counts as cell-based. To be noted: Mycobacterium tuberculosis, read-out: LORA MIC. The source says: MIC Determination in the Low-Oxygen-Recovery Assay (LORA) for Nonreplicating M. tuberculosis
Screening for new antimicrobial agents is routinely conducted only against actively replicating bacteria. However, it is now widely accepted that a physiological state of non-replicating persistence (NRP) is responsible for antimicrobial tolerance in many bacterial infections. In tuberculosis, the key to shortening the 6-month regimen lies in targeting this NRP subpopulation. […] Cho S H, Want S, Wan B, Hwang C H, Pauli G F, Franzblau S G; “Low-Oxygen-Recovery Assay for High-Throughput Screening of Compounds against Nonreplicating Mycobacterium tuberculosis” Antimicrob Agents Chemother. 2007 April; 51(4): 1380-1385 doi: 10.1128/AAC.00055-06.

Test [3] concerns intracellular M. tuberculosis in THP-1 cells. The test is described as follows: microbe, parasite or virus in culture. The conditions noted are these: Mycobacterium tuberculosis, H37RA; for IC50: THP-1, 120 h, read-out: Mtb H37Ra in THP1 Cells (IC50); for MIC: read-out: MIC, Macrophage Cells. It is filed as cell-based.
Test [4] concerns intracellular M. tuberculosis in J774 cells. Description: Efficacy against intracellular M. tuberculosis (luciferase) in J774 cells. It is filed as cell-based.
Test [5] relates to M. kansasii. Description: MIC in bacterial broth culture (7H9 with ADC, visual or resazurin). It is filed as cell-based. To be noted: Mycobacterium kansasii, Table 31, duplicate values.
Test [6] deals with M. tuberculosis Erdman. Description: MBC assay, log killing reduction in CFU over a one month period of incubation (Table 35). It is filed as cell-based. The conditions noted are these: Compound 23A at 4×MIC.
Test [7] deals with Non-Replicating (NRP) M. tuberculosis H37Ra. Description: Non-replicating (NRP) M. tuberculosis H37Ra (luciferase) culture assay. It counts as cell-based. The conditions noted are these: Mycobacterium tuberculosis, 336 h, read on day 14.
For test [8], the system named is M. tuberculosis H37Rv. Description: Monotherapy against established TB in mice (dose-ranging activity study). The conditions noted are these: BALB/c mice, M. tuberculosis H37Rv, 150 mg/kg daily 5 days per week. It counts as in vivo.
The subject of test [9] is M. tuberculosis H37Rv. To be noted: cited from earlier work.
Where [10] appears, read: Mycobacterium tuberculosis, H37RA, read-out: MIC, Broth.

The structures appear in SMILES notation. In brackets after ≈: the same amount, converted by molar mass. Where two headings read alike, the source gives them in different places. Some results are limits rather than exact numbers.

Usually IC50 stands for the midpoint of a concentration-inhibition curve. The compound `COc1c(N2CCNC(C)C2)c(F)cc2c(=O)c(C(=O)O)cn(C3CC3)c12` (stereo not drawn) [Gatifloxacin, 1-cyclopropyl-6-fluoro-8-methoxy-7-(3-methylpiperazin-1-yl)-4-oxo-quinoline-3-carboxylic acid] had an Erdman (MIC) in [1] of 0.25 µg/mL. The MIC in test [2] was 3.6 µg/mL (≈ 9.59 µM). The IC50 was determined as 0.2 µg/mL (≈ 0.533 µM) in test [3] and 0.94 µg/mL (≈ 2.5 µM) in test [4] (Mycobacterium tuberculosis, J774, 120 h, read-out: Mtb CDC1551 in J774 Cells (IC50)).
For the compound `COc1c(N2C[C@@H]3CCCN[C@@H]3C2)c(F)cc2c(=O)c(C(=O)O)cn(C3CC3)c12` [Moxifloxacin, 1-cyclopropyl-7-[(1S,6S)-2,8-diazabicyclo [4.3.0]non-8-yl]-6-fluoro-8-methoxy-4-oxo-quinoline-3-carboxylic acid], the MIC in test [1] (Mycobacterium tuberculosis, ERDMAN, Table 31, Mtb Erdman, duplicate values, read-out: MIC) amounted to 0.03 µg/mL (≈ 0.0747 µM); in [1] (Mycobacterium tuberculosis, ERDMAN, Table 32, M. tuberculosis Erdman, […], duplicate values, read-out: MIC), 0.03 µg/mL (≈ 0.0747 µM); in [1] (Mycobacterium tuberculosis, ERDMAN, Table 33, M. tuberculosis strain Erdman, read-out: MIC), 0.03 µg/mL (≈ 0.0747 µM); in [1] (Mycobacterium tuberculosis, GN9, Table 31, Mtb GN9, duplicate values, read-out: MIC) it was 0.03 µg/mL (≈ 0.0747 µM); in [1] (Mycobacterium tuberculosis, GN9, Table 33, M. tuberculosis strain GN9, read-out: MIC) it was 0.03 µg/mL (≈ 0.0747 µM); in test [1] (setting [10]) it was 0.12 µg/mL (≈ 0.299 µM). Also, the MIC was determined as 0.03 µg/mL (≈ 0.0747 µM) in test [1] (Mycobacterium tuberculosis, H37RV, Table 31, Mtb H37Rv, duplicate values, read-out: MIC); 0.06 µg/mL (≈ 0.149 µM) in [1] (Mycobacterium tuberculosis, H37RV, Table 33, M. tuberculosis strain H37Rv, read-out: MIC); 0.015 µg/mL (≈ 0.0374 µM) in [1] (Mycobacterium tuberculosis, Table 31, Mtb CDC1551, duplicate values, read-out: MIC); 0.03 µg/mL (≈ 0.0747 µM) in test [1] (Mycobacterium tuberculosis, Table 31, Mtb HN878 (Beijing-Type), duplicate values, read-out: MIC); 8 µg/mL (≈ 19.9 µM) in test [1] (Mycobacterium tuberculosis, Table 32, […], duplicate values, read-out: MIC); 0.015 µg/mL (≈ 0.0374 µM) in test [1] (Mycobacterium tuberculosis, Table 33, M. tuberculosis strain 210, read-out: MIC). Moreover, the MIC was 0.5 µg/mL (≈ 1.25 µM) in test [1] (Mycobacterium tuberculosis, Table 33, M. tuberculosis strain AH13, read-out: MIC); 0.03 µg/mL (≈ 0.0747 µM) in [1] (Mycobacterium tuberculosis, Table 33, M. tuberculosis strain AH517, read-out: MIC); 0.008 µg/mL (≈ 0.0199 µM) in test [1] (Mycobacterium tuberculosis, Table 33, M. tuberculosis strain BW9, read-out: MIC); 0.03 µg/mL (≈ 0.0747 µM) in test [1] (Mycobacterium tuberculosis, Table 33, M. tuberculosis strain C913, read-out: MIC); 0.03 µg/mL (≈ 0.0747 µM) in test [1] (Mycobacterium tuberculosis, Table 33, M. tuberculosis strain CDC1551, read-out: MIC); 0.25 µg/mL (≈ 0.623 µM) in [1] (Mycobacterium tuberculosis, Table 33, M. tuberculosis strain H10460, read-out: MIC). Also, the MIC was 0.03 µg/mL (≈ 0.0747 µM) in test [1] (Mycobacterium tuberculosis, Table 33, M. tuberculosis strain H13571, read-out: MIC); 0.015 µg/mL (≈ 0.0374 µM) in test [1] (Mycobacterium tuberculosis, Table 33, M. tuberculosis strain HH915336, read-out: MIC); 0.015 µg/mL (≈ 0.0374 µM) in test [1] (Mycobacterium tuberculosis, Table 33, M. tuberculosis strain LL, read-out: MIC); 0.015 µg/mL (≈ 0.0374 µM) in test [1] (Mycobacterium tuberculosis, Table 33, M. tuberculosis strain MC19062, read-out: MIC); 0.06 µg/mL (≈ 0.149 µM) in test [1] (Mycobacterium tuberculosis, Table 33, M. tuberculosis strain Rv ATCC, read-out: MIC); 0.03 µg/mL (≈ 0.0747 µM) in [1] (Mycobacterium tuberculosis, Table 33, M. tuberculosis strain W10, read-out: MIC). In addition, the MIC stood at 0.5 µg/mL (≈ 1.25 µM) in test [1] (Mycobacterium tuberculosis, Table 33, M. tuberculosis strain W33, read-out: MIC); 1 µg/mL (≈ 2.49 µM) in test [1] (Mycobacterium tuberculosis, Table 33, M. tuberculosis strain Wg565, read-out: MIC); 0.015 µg/mL (≈ 0.0374 µM) in test [1] (Table 31, Mtb GN9, duplicate values); 0.015 µg/mL (≈ 0.0374 µM) in [1] (Table 31, Mtb HN878 (Beijing-Type), duplicate values); 0.015 µg/mL (≈ 0.0374 µM) in test [1] (Table 32, M. tuberculosis Erdman, […], duplicate values); 4 µg/mL (≈ 9.96 µM) in test [1] (Table 32, […], duplicate values). The MIC in test [5] (M. kansasii 303) was 0.03 µg/mL (≈ 0.0747 µM); in test [5] (M. kansasii 316), 0.03 µg/mL (≈ 0.0747 µM); in [5] (M. kansasii 379) it was 0.03 µg/mL (≈ 0.0747 µM); in test [2], more than 40 µg/mL; in [3], 0.33 µg/mL (≈ 0.822 µM). The Erdman (MIC) in [1] (Table 36, Mtb Erdman, unit inferred) was 0.03 µg/mL. For the same compound, the “Log Reduction (cfu)” value came out at 0 Log in [6] (day 0 of incubation); 0.4 Log in test [6] (day 1 of incubation); 1.6 Log in test [6] (day 2 of incubation); 2.8 Log in test [6] (day 3 of incubation); 2.2 Log in [6] (day 7 of incubation); 1.4 Log in [6] (day 14 of incubation). Besides, the figures for the “Log Reduction (cfu)” value in test [6] (day 21 of incubation) and in test [6] (day 28 of incubation) were 0.0 Log and 0.2 Log, respectively. Further, the half-maximal inhibitory concentration (IC50) in test [3] was 0.33 µg/mL (≈ 0.822 µM); in [4] (Mycobacterium tuberculosis, J774, 120 h; read-out: Mtb CDC1551 in J774 Cells (IC50)) it was 0.21 µg/mL (≈ 0.523 µM); in [7] it was 6 µg/mL (≈ 14.9 µM).
For the compound `NC(=O)c1cnccn1` [Pyrazinamide, pyrazine-2-carboxamide], the “Log cfu (lung)” value in test [8] (4 weeks of treatment) stood at 4.22. Moreover, the “Log Reduction” value in test [8] (4 weeks, vs untreated control) came to 1.78. Also, the MIC in test [1] (setting [10]) was more than 12.3 µg/mL; in test [3] it was more than 2.5 µg/mL; in test [9] (M. tuberculosis H37Rv, normal pH), 250 µg/mL (≈ 2030 µM); in test [9] (pH 6.0), 50 µg/mL (≈ 406 µM).
